In patent US20120245161A1 (SANOFI, priority 2009, published 2012):
Counter-ions that a name gives are not always drawn.

Each compound was assayed against T1, recombinant human beta tryptase (Homo sapiens, UniProt P20231) (assay: beta-Tryptase inhibition, chromogenic enzyme assay (substrate S2366, read at 405 nm)). Settings: Ki calculated from IC50: Ki=IC50/(1+[Substrate]/Km); 0.5 mM substrate, room temperature; read-out: Tryptase Ki.
T1 construct: made in house; host or cells: yeast cells
Format: biochemical
Text: Inhibition of this catalytic activity may be measured by the in vitro enzyme assay and the cellular assay.
Tryptase inhibition activity is confirmed using either isolated human lung tryptase or recombinant human beta tryptase expressed in yeast cells. Essentially equivalent results are obtained using isolated native enzyme or the expressed enzyme. The assay procedure employs a 96 well microplate (Costar 3590) using L-pyroglutamyl-L-prolyl-L-arginine-para-nitroanilide (S2366: Quadratech) as substrate (essentially as described by McEuen et. al. Biochem Pharm, 1996, 52, pages 331-340). Assays are performed at room temperature using 0.5 mM substrate (2×Km) and the microplate is read on a microplate reader (Beckman Biomek Plate reader) at 405 nm wavelength.
Materials and Methods for Tryptase primary screen (Chromogenic assay)
S2366 (Stock solutions of 2.5 mM).
Purified recombinant beta Tryptase Stocks of 310 μg/mL. Protocol (Single point determination) • Add 60 μL of diluted substrate (final concentration of 500 μM in assay buffer) to each well • Add compound in duplicates, final concentration of 20 volume 20 • Add enzyme at a final concentration of 50 ng/mL in a volume of 20 • Total volume for each well is 100 • Agitate briefly to mix and incubate at room temp in the dark for 30 minutes • Read absorbencies at […] Each plate has the following controls: • Totals: 60 μL of substrate, 20 μL of buffer (with 0.2% final concentration of DMSO), • 20 μL of enzyme Non-specific: 60 μL of substrate, 40 μL of buffer (with 0.2% DMSO) Totals: 60 μL of substrate, 20 μL of buffer (No DMSO), 20 μL of enzyme Non-specific: 60 μL of substrate, 40 μL of buffer (No DMSO) Protocol (IC50 and Ki determination)
The protocol is essentially the same as above except that the compound is added in duplicates at the following final concentrations: 0.01, 0.03, 0.1, 0.3, 1, 3, 10 μM (All dilutions carried out manually). For every assay, whether single point or IC50 determination, a standard compound is used to derive IC50 for comparison. From the IC50 value, the Ki can be calculated using the following formula: Ki=IC50/(1+[Substrate]/Km).

T1 sequence (P20231 31-275): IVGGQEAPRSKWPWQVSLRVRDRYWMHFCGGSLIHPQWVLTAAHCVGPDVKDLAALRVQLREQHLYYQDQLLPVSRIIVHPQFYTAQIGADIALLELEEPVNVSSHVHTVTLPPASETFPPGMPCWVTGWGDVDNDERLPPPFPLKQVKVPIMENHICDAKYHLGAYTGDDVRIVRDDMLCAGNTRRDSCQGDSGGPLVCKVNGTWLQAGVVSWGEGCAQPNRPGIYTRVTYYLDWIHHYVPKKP

Point of comparison: `CCCn1cc(-c2cccc3c2c(C(=O)N2CCC(c4cc(CN)ccc4F)CC2)cn3CCOC(F)(F)F)cn1` [Example 93, [4-(5-Aminomethyl-2-fluoro-phenyl)-piperidin-1-yl]-[4-(1-propyl-1H-pyrazol-4-yl)-1-(2-trifluoromethoxy-ethyl)-1H-indol-3-yl]-methanone dihydrochloride], Ki 160 nM. Against it:
- NCc1ccc(F)c(C2CCN(C(=O)c3cn(CCOC(F)(F)F)c4cccc(-c5ccncc5)c34)CC2)c1 [Example 78, [4-(5-Aminomethyl-2-fluoro-phenyl)-piperidin-1-yl]-[4-pyridin-4-yl-1-(2-trifluoromethoxy-ethyl)-1H-indol-3-yl]-methanone dihydrochloride] — within 1.5-fold, 117 nM
- NCc1ccc(F)c(C2CCN(C(=O)c3cn(CCN4CCCC4)c4ccccc34)CC2)c1 [Example 38, [4-(5-Aminomethyl-2-fluoro-phenyl)-piperidin-1-yl]-[1-(2-pyrrolidin-1-yl-ethyl)-1H-indol-3-yl]-methanone dihydrochloride] — 2.4-fold lower, 66 nM

Same assay, conditions: Tryptase Ki (nM), Ki calculated from IC50: Ki=IC50/(1+[Substrate]/Km); 0.5 mM substrate, room temperature

Point of comparison: `COCCn1cc(C(=O)N2CCC(c3cc(CN)c(F)cc3F)CC2)c2cccc(C)c21` [Example 111, [4-(5-Aminomethyl-2,4-difluoro-phenyl)-piperidin-1-yl]-[1-(2-methoxy-ethyl)-7-methyl-1H-indol-3-yl]-methanone hydrochloride], Ki 1020 nM. Against it:
- COCCn1cc(C(=O)N2CCC(c3cc(CN)ccc3F)CC2)c2c(NS(=O)(=O)c3cccnc3)cccc21 [Example 106, Pyridine-3-sulfonic acid [3-[4-(5-aminomethyl-2-fluoro-phenyl)-piperidine-1-carbonyl]-1-(2-methoxy-ethyl)-1H-indol-4-yl]-amide hydrochloride] — 6.8-fold lower, 149 nM
- COCCn1cc(C(=O)N2CCC(c3cc(CN)ccc3F)CC2)c2c(NC(=O)C3CC4CCC3C4)cccc21 (stereo not drawn) [Example 98, Bicyclo[2.2.1]heptane-2-carboxylic acid [3-[4-(5-aminomethyl-2-fluoro-phenyl)-piperidine-1-carbonyl]-1-(2-methoxy-ethyl)-1H-indol-4-yl]-amide hydrochloride] — 6.9-fold lower, 147 nM
- CCCCS(=O)(=O)Nc1cccc2c1c(C(=O)N1CCC(c3cc(CN)ccc3F)CC1)cn2CCOC [Example 107, Butane-1-sulfonic acid [3-[4-(5-aminomethyl-2-fluoro-phenyl)-piperidine-1-carbonyl]-1-(2-methoxy-ethyl)-1H-indol-4-yl]-amide hydrochloride] — 3.2-fold lower, 315 nM
- COCCn1cc(C(=O)N2CCC(c3cc(CN)ccc3F)CC2)c2c(NC(=O)N3CCOCC3)cccc21 [Example 99, Morpholine-4-carboxylic acid [3-[4-(5-aminomethyl-2-fluoro-phenyl)-piperidine-1-carbonyl]-1-(2-methoxy-ethyl)-1H-indol-4-yl]-amide hydrochloride] — 41-fold lower, 25 nM
- COCCn1cc(C(=O)N2CCC(c3cc(CN)ccc3F)CC2)c2c(C(=O)N(C)C)cccc21 [Example 91, 3-[4-(5-Aminomethyl-2-fluoro-phenyl)-piperidine-1-carbonyl]-1-(2-methoxy-ethyl)-1H-indol-4-carboxylic acid dimethylamide hydrochloride] — 51-fold lower, 20 nM
- NCc1ccc(F)c(C2CCN(C(=O)c3cn(CCO)c4c(OC(F)(F)F)cccc34)CC2)c1 [Example 22, [4-(5-Aminomethyl-2-fluoro-phenyl)-piperidin-1-yl]-[1-(2-hydroxy-ethyl)-7-trifluoromethoxy-1H-indol-3-yl]-methanone hydrochloride] — 2.6-fold lower, 390 nM
- CCCn1cc(-c2cccc3c2c(C(=O)N2CCC(c4cc(CN)ccc4F)CC2)cn3CCOC)cn1 [Example 67, [4-(5-Aminomethyl-2-fluoro-phenyl)-piperidin-1-yl]-[1-(2-methoxy-ethyl)-4-(1-propyl-1H-pyrazol-4-yl)-1H-indol-3-yl]-methanone hydrochloride] — 85-fold lower, 12 nM
- NCc1ccc(F)c(C2CCN(C(=O)c3cn(CCOC(F)(F)F)c4cccc(F)c34)CC2)c1 [Example 90, [4-(5-Aminomethyl-2-fluoro-phenyl)-piperidin-1-yl]-[4-fluoro-(2-trifluoromethoxy-ethyl)-1H-indol-3-yl]-methanone hydrochloride] — 2.6-fold lower, 396 nM
- COCCn1cc(C(=O)N2CCC(c3cc(CN)ccc3OCC(=O)OC)CC2)c2cccc(C)c21 [Example 23, (4-Aminomethyl-2-{1-[1-(2-methoxy-ethyl)-7-methyl-1H-indole-3-carbonyl]-piperidin-4-yl}-phenoxy)-acetic acid methyl ester hydrochloride] — 24-fold lower, 42 nM
- NCc1ccc(F)c(C2CCN(C(=O)c3cn(CCOC(F)(F)F)c4cccc(-c5cncnc5)c34)CC2)c1 [Example 92, [4-(5-Aminomethyl-2-fluoro-phenyl)-piperidin-1-yl]-[4-pyrimidin-5-yl-1-(2-trifluoromethoxy-ethyl)-1H-indol-3-yl]-methanone dihydrochloride] — 11-fold lower, 90 nM
- COCCn1cc(C(=O)N2CCC(c3cc(CN)ccc3F)CC2)c2c(-c3cccs3)cccc21 [Example 64, [4-(5-Aminomethyl-2-fluoro-phenyl)-piperidin-1-yl]-[1-(2-methoxy-ethyl)-4-thiophen-2-yl-1H-indol-3-yl]-methanone hydrochloride] — 26-fold lower, 39 nM
- COCCn1cc(C(=O)N2CCC(c3cc(CN)ccc3F)CC2)c2c(C(=O)NC3CC3)cccc21 [Example 123, 3-[4-(5-Aminomethyl-2-fluoro-phenyl)-piperidine-1-carbonyl]-1-(2-methoxy-ethyl)-1H-indole-4-carboxylic acid cyclopropylamide hydrochloride] — 20-fold lower, 50 nM
- Cc1cccc2c(C(=O)N3CCC(c4cc(CN)ccc4F)CC3)cn(CCCO)c12 [Example 17, hydrochloride] — 28-fold lower, 37 nM
- COCCn1cc(C(=O)N2CCC(c3cc(CN)ccc3F)CC2)c2c(C)cccc21 [Example 44, [4-(5-Aminomethyl-2-fluoro-phenyl)-piperidin-1-yl]-[1-(2-methoxy-ethyl)-4-methyl-1H-indol-3-yl]-methanone hydrochloride] — 20-fold lower, 51 nM
- COCCn1cc(C(=O)N2CCC(c3cc(CN)ccc3F)CC2)c2c(-c3ccc(OC)cc3)cccc21 [Example 70, [4-(5-Aminomethyl-2-fluoro-phenyl)-piperidin-1-yl]-[1-(2-methoxy-ethyl)-4-(4-methoxy-phenyl)-1H-indol-3-yl]-methanone hydrochloride] — 49-fold lower, 21 nM
- COCCn1cc(C(=O)N2CCC(c3cc(CN)ccc3F)CC2)c2c(NC(=O)c3cc4cccc(C)c4[nH]3)cccc21 [Example 121, 7-Methyl-1H-indole-2-carboxylic acid [3-[4-(5-aminomethyl-2-fluoro-phenyl)-piperidine-1-carbonyl]-1-(2-methoxy-ethyl)-1H-indol-4-yl]-amide dihydrochloride] — 10-fold lower, 99 nM
- COCCn1cc(C(=O)N2CCC(c3cc(CN)ccc3F)CC2)c2c(N(C)C)cccc21 [Example 77, [4-(5-Aminomethyl-2-fluoro-phenyl)-piperidin-1-yl]-[4-dimethylamino-1-(2-methoxy-ethyl)-1H-indol-3-yl]-methanone hydrochloride] — 18-fold lower, 57 nM
- COCCn1cc(C(=O)N2CCC(c3cc(CN)ccc3F)CC2)c2c(-c3cccc(O)c3)cccc21 [Example 72, [4-(5-Aminomethyl-2-fluoro-phenyl)-piperidin-1-yl]-[4-(3-hydroxy-phenyl)-1-(2-methoxy-ethyl)-1H-indol-3-yl]-methanone hydrochloride] — 78-fold lower, 13 nM

Same assay, conditions: Tryptase Ki (nM), additional value in parentheses tagged "719" (code not explained)

`COCCn1cc(C(=O)N2CCC(c3cc(CN)ccc3F)CC2)c2c(C(=O)N(C)C)cccc21` [Example 91, 3-[4-(5-Aminomethyl-2-fluoro-phenyl)-piperidine-1-carbonyl]-1-(2-methoxy-ethyl)-1H-indol-4-carboxylic acid dimethylamide hydrochloride] showed a Ki of 54 nM.

Same assay, conditions: Tryptase Ki (nM), additional value in parentheses tagged "8923" (code not explained)

In the case of `COCCn1cc(C(=O)N2CCC(c3cc(CN)ccc3F)CC2)c2c(C(=O)N(C)C)cccc21` [Example 91, 3-[4-(5-Aminomethyl-2-fluoro-phenyl)-piperidine-1-carbonyl]-1-(2-methoxy-ethyl)-1H-indol-4-carboxylic acid dimethylamide hydrochloride], the Ki is reported as 28 nM.
